Where “and” joins values, the source holds several entries; their conditions need not be identical. Equal entries are not always repeated.
How the values were obtained:
Conditions in all cases: CDD 3 μM
[1] = system: HLS9; experiment: CDD depletion in HLS9 0.02 mg/ml (optimisation of incubation condition); format: in vitro ADME, human
Experimental: (§1) The metabolism profiles of CDD and curcumin formation profile were investigated against HLS9, MLS9, DLS9 and RLS9. A stock solution of CDD was prepared at 150 µM in 50% acetonitrile in water before use. The metabolism study was initiated by spiking a 588 µl pre-incubated LS9 with 12 µl CDD stock solution, and subsequently incubated at 37°C. The final concentrations of CDD and LS9 were 3 µM and 0.02 mg/ml, respectively. A 50 µl aliquot from the mixture was collected at 0.5, 1, 2, 3, 4, 5, 10, 15, 30, 45 and 60 min and was immediately mixed with 100 µl of ice-cold acetonitrile containing 0.45 µM of internal standard DMC to terminate the metabolic reaction. […] Samples of 120 µl of supernatant wee diluted with 40 µl of water prior to UHPLC analysis (Agilent series 1290, Agilent Technology, USA) by means of protocol outlined in Materials and Methods:“In vitro Metabolism Profiling of Curcumin Diethyl Disuccinate”. The sample at 0 min was prepared as other samples except that heat-inactivated HLS9, MLS9, DLS9 and RLS9 (80°C for 20 min; 1 mg/ml protein) were used. Duplicates were conducted for each experiment.
(§2) The peak area ratios of CDD and curcumin to internal standard in the supernatant were determined. The percent contents of CDD and curcumin were plotted against incubation time. The depletion of CDD was calculated with reference to the initial concentration. The saturated substrate was defined as % depletion less than 30.

[2] = system: RLS9; experiment: CDD depletion in RLS9 0.02 mg/ml (optimisation of incubation condition); format: in vitro ADME, rat
Experimental: as §1, §2

[3] = system: MLS9; experiment: CDD depletion in MLS9 0.02 mg/ml (optimisation of incubation condition); format: in vitro ADME, monkey
Experimental: as §1, §2

[4] = system: DLS9; experiment: CDD depletion in DLS9 0.02 mg/ml (optimisation of incubation condition); format: in vitro ADME, dog
Experimental: as §1, §2

[5] = 1 min (selected incubation time)
[6] = 0.5 min (selected incubation time)

## CCOC(=O)CCC(=O)Oc1ccc(/C=C/C(=O)/C=C(O)/C=C/c2ccc(OC(=O)CCC(=O)OCC)c(OC)c2)cc1OC [CDD, curcumin diethyl disuccinate]
[1]; 0.5 min
  % CDD remaining: 82.88%
  %Depletion of CDD: 17.12%
[1]; 1 min
  % CDD remaining: 80.95%
[1]; [5]
  %Depletion of CDD: 19% and 19.05%
[1]; 2 min
  % CDD remaining: 68.18%
  %Depletion of CDD: 31.82%
[1]; 3 min
  % CDD remaining: 57.46%
  %Depletion of CDD: 42.54%
[1]; 4 min
  % CDD remaining: 43.15%
  %Depletion of CDD: 56.85%
[1]; 5 min
  % CDD remaining: 36.37%
  %Depletion of CDD: 63.63%
[2]; 0.5 min
  % CDD remaining: 82.81%
  %Depletion of CDD: 17.19%
[2]; 1 min
  % CDD remaining: 78.14%
[2]; [5]
  %Depletion of CDD: 22% and 21.86%
[2]; 2 min
  % CDD remaining: 62.71%
  %Depletion of CDD: 37.29%
[2]; 3 min
  % CDD remaining: 56.54%
  %Depletion of CDD: 43.46%
[2]; 4 min
  % CDD remaining: 46.44%
  %Depletion of CDD: 53.56%
[2]; 5 min
  % CDD remaining: 40.58%
  %Depletion of CDD: 59.42%
[3]; 0.5 min
  % CDD remaining: 75.32%
[3]; [6]
  %Depletion of CDD: 25% and 24.68%
[3]; 1 min
  % CDD remaining: 63.90%
  %Depletion of CDD: 36.10%
[3]; 2 min
  % CDD remaining: 49.34%
  %Depletion of CDD: 50.66%
[3]; 3 min
  % CDD remaining: 37.51%
  %Depletion of CDD: 62.49%
[3]; 4 min
  % CDD remaining: 28.36%
  %Depletion of CDD: 71.64%
[3]; 5 min
  % CDD remaining: 21.92%
  %Depletion of CDD: 78.08%
[4]; 0.5 min
  % CDD remaining: 76.77%
[4]; [6]
  %Depletion of CDD: 23% and 23.23%
[4]; 1 min
  % CDD remaining: 66.99%
  %Depletion of CDD: 33.01%
[4]; 2 min
  % CDD remaining: 49.79%
  %Depletion of CDD: 50.21%
[4]; 3 min
  % CDD remaining: 42.26%
  %Depletion of CDD: 57.74%
[4]; 4 min
  % CDD remaining: 31.30%
  %Depletion of CDD: 68.70%
[4]; 5 min
  % CDD remaining: 25.06%
  %Depletion of CDD: 74.94%

Source: PMC7703437, “In Vitro Hepatic Metabolism of Curcumin Diethyl Disuccinate by Liver S9 from Different Animal Species” (Frontiers in Pharmacology, 2020)
